# ChEMBL document CHEMBL5291721, “A preclinical secondary pharmacology resource illuminates target-adverse drug reaction associations of marketed drugs” (Nat Commun, 2023)
# Legend:
# D(3) dopamine receptor = D(3) dopamine receptor (Homo sapiens, UniProt P35462)
# Histamine H3 receptor = Histamine H3 receptor (Homo sapiens, UniProt Q9Y5N1)
# [1] = biological target: Muscarinic acetylcholine receptor M3 (Homo sapiens, UniProt P20309)
# Estrogen receptor = biological target: T1, Estrogen receptor (Homo sapiens, UniProt P03372)
# T1 sequence (P03372 whole entry): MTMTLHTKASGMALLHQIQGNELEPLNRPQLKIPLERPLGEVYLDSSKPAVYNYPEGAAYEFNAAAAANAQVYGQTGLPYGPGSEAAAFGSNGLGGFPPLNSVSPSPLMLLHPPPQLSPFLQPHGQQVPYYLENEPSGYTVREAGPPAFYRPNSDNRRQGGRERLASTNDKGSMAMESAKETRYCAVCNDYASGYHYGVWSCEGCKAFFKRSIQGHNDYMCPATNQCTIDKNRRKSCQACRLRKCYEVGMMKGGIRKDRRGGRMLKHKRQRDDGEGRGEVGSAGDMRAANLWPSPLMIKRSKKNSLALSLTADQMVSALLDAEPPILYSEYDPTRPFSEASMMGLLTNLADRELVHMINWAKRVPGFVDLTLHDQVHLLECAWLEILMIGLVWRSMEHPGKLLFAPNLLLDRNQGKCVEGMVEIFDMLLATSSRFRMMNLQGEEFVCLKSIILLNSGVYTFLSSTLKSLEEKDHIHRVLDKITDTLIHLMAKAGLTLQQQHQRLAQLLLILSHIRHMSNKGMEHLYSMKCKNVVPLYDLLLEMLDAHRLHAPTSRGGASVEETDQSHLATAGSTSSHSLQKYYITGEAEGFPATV
# [2] = biological target: Glutamate receptor ionotropic, NMDA 1 (Rattus norvegicus, UniProt P35439)
# Motilin receptor = Motilin receptor (Homo sapiens, UniProt O43193)
# Motilin receptor, sequence (O43193 whole entry): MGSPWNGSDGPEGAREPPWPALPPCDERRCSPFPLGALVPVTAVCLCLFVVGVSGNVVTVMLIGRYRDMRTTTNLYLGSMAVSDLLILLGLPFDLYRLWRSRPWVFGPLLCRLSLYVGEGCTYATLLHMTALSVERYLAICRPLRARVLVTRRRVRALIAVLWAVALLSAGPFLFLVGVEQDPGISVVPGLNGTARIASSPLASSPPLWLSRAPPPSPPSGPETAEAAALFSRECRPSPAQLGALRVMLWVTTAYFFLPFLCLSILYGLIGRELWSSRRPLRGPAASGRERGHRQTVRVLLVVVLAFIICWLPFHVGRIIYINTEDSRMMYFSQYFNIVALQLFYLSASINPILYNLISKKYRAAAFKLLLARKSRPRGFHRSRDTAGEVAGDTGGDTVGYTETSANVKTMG
# [3] = biological target: Beta-2 adrenergic receptor (Homo sapiens, UniProt P07550)
# [4] = biological target: T2, Gamma-aminobutyric acid receptor subunit alpha-1 (Rattus norvegicus, UniProt P62813); format: functional
# T2 sequence (P62813 whole entry): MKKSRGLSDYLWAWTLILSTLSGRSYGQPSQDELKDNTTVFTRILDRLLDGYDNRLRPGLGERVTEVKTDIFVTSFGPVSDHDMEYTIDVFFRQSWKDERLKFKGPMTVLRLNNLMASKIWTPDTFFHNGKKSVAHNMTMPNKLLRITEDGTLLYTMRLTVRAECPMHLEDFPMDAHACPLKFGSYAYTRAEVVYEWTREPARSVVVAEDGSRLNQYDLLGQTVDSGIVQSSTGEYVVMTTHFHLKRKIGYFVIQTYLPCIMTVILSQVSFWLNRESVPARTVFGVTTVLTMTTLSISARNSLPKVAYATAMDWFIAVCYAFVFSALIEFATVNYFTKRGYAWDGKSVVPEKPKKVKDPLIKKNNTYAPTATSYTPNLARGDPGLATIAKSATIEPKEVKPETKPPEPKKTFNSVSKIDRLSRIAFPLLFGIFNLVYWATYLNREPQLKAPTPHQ
# [5] = biological target: T3, Alpha-1A adrenergic receptor (Homo sapiens, UniProt P35348); format: functional, cell-based
# T3 sequence (P35348 whole entry): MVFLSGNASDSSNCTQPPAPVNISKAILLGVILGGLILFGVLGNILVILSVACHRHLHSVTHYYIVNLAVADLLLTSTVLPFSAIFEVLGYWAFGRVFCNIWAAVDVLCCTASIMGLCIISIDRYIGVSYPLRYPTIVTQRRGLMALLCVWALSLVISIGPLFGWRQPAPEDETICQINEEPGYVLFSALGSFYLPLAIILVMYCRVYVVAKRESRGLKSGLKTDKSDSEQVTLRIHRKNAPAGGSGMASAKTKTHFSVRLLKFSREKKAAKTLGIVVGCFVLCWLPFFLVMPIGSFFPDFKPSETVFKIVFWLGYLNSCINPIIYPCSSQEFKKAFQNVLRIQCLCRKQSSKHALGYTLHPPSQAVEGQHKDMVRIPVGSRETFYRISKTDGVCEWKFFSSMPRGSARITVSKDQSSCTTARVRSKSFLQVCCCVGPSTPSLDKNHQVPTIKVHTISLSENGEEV
# Melanocortin receptor 4 = Melanocortin receptor 4 (Homo sapiens, UniProt P32245)
# Melanocortin receptor 4, sequence (P32245 whole entry): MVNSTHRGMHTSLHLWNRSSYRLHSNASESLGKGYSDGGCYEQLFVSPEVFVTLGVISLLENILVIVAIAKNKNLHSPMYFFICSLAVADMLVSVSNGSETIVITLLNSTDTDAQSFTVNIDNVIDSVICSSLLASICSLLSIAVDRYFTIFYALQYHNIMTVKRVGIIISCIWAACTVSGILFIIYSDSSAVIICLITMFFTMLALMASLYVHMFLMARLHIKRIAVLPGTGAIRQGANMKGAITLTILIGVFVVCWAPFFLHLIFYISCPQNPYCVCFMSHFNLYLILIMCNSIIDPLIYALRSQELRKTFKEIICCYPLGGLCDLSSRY
# [6] = biological target: T2, Gamma-aminobutyric acid receptor subunit alpha-1
# [7] = biological target: T4, 5-hydroxytryptamine receptor 1A (Homo sapiens, UniProt P08908); format: functional, cell-based
# T4 sequence (P08908 whole entry): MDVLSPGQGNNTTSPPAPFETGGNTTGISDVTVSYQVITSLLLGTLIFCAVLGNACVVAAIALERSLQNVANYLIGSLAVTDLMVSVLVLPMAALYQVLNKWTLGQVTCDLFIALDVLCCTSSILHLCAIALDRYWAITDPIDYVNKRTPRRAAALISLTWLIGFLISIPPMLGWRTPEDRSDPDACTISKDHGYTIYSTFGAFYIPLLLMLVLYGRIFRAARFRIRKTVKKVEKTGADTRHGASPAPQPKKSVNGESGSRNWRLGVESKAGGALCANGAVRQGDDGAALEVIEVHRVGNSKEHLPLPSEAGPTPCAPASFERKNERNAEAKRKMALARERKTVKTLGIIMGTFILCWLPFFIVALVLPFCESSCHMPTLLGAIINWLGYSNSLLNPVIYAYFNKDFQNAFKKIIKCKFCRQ
# [8] = biological target: T3, Alpha-1A adrenergic receptor
# [9] = biological target: Growth hormone secretagogue receptor type 1 (Homo sapiens, UniProt Q92847)
# Growth hormone secretagogue receptor type 1, sequence (Q92847 whole entry): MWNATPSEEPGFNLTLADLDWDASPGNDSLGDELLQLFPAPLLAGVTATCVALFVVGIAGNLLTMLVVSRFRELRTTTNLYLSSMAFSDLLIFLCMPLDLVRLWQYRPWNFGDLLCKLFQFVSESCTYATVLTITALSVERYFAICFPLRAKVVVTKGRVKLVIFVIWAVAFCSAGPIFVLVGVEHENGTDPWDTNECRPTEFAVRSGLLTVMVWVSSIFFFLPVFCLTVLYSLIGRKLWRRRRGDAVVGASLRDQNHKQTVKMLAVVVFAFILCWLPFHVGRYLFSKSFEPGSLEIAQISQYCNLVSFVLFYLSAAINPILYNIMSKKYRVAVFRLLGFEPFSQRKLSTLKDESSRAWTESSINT
# [10] = biological target: cGMP-inhibited 3',5'-cyclic phosphodiesterase 3A (Homo sapiens, UniProt Q14432); format: functional
# cGMP-inhibited 3',5'-cyclic phosphodiesterase 3A, sequence (Q14432 whole entry): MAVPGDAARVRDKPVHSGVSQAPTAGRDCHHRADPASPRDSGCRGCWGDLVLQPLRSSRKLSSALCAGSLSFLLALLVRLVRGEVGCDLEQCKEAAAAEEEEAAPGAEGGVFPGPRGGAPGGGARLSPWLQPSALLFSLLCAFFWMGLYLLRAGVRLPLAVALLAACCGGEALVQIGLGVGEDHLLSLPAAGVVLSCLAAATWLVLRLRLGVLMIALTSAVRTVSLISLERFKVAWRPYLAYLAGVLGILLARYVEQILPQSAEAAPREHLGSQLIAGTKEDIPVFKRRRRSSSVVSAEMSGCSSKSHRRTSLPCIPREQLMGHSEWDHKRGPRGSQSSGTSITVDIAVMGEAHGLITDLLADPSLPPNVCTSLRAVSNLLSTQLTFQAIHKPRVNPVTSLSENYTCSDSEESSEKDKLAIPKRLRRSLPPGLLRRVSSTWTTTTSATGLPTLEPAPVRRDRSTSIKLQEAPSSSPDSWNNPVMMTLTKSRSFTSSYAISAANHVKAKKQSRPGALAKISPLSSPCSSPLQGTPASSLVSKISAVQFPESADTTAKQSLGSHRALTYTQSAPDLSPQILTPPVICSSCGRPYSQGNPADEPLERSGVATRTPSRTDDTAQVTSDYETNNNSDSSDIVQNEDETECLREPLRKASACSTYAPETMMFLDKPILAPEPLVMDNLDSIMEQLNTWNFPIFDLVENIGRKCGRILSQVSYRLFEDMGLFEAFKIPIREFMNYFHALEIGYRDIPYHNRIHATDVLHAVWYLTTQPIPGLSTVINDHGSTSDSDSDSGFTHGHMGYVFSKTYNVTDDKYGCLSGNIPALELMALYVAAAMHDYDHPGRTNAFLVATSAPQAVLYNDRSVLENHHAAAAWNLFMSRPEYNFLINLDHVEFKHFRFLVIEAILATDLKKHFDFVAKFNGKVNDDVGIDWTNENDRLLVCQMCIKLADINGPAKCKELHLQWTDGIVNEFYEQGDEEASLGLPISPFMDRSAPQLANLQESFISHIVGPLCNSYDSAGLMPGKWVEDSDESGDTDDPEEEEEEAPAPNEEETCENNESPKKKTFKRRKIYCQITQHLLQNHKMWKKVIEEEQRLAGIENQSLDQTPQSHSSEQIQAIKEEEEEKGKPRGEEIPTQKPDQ
# Note: assay procedure not described here.
# D(3) dopamine receptor, sequence (P35462 whole entry): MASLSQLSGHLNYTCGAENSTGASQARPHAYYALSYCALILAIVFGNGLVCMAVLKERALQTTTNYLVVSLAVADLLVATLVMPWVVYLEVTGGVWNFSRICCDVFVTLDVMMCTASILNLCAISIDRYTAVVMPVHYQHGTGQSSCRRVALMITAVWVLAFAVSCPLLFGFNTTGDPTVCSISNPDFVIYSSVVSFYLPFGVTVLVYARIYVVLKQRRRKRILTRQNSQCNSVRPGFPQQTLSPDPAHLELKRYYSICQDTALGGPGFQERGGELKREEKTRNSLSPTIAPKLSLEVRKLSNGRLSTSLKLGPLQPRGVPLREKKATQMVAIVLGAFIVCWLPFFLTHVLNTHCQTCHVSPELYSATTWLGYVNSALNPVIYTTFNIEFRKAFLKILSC
# Muscarinic acetylcholine receptor M3, sequence (P20309 whole entry): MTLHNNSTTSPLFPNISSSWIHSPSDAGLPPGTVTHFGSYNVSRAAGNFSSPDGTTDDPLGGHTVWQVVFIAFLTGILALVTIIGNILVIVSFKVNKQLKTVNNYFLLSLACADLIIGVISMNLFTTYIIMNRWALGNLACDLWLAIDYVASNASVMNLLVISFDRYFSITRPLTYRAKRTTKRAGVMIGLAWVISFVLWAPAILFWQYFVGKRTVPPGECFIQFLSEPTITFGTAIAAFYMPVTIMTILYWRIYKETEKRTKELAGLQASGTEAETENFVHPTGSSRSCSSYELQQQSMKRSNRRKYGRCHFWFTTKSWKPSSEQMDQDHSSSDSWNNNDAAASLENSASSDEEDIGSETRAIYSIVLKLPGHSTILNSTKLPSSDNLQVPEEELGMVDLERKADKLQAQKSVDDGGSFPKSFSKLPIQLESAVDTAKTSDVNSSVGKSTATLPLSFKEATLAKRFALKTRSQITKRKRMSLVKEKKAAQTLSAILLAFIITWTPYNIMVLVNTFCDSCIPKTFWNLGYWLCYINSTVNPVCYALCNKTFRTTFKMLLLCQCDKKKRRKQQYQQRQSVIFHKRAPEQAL
# Histamine H3 receptor, sequence (Q9Y5N1 whole entry): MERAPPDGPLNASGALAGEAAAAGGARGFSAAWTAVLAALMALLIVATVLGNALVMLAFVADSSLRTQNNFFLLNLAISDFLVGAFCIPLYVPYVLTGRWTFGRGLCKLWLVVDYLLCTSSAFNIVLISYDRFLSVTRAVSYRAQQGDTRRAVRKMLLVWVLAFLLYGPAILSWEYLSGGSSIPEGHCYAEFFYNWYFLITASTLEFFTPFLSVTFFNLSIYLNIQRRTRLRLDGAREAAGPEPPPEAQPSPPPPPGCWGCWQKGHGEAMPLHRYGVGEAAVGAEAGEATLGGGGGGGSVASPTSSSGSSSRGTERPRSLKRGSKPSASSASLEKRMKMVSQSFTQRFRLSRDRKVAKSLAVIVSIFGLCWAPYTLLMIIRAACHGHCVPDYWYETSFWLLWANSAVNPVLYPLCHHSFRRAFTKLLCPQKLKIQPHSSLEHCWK
Compound,AC50 (D(3) dopamine receptor),AC50 (Histamine H3 receptor),AC50 [1],AC50 (Estrogen receptor),AC50 [2],AC50 (Motilin receptor),AC50 [3],AC50 [4],AC50 [5],AC50 (Melanocortin receptor 4),AC50 [6],AC50 [7],AC50 [8],AC50 [9],AC50 [10]
TEPRENONE,> 30 µM,> 10 µM,> 30 µM,> 30 µM,> 10 µM,> 10 µM,> 30 µM,> 10 µM,> 30 µM,> 30 µM,> 10 µM,> 30 µM,> 10 µM,> 30 µM,> 30 µM
CCC(=O)[C@@]1(C)[C@H](C)C[C@H]2[C@@H]3CCC4=CC(=O)C=C[C@]4(C)[C@H]3[C@@H](O)C[C@@]21C [RIMEXOLONE],> 30 µM,–,> 30 µM,> 30 µM,> 10 µM,> 10 µM,> 10 µM,> 10 µM,–,> 10 µM,> 10 µM,> 10 µM,> 10 µM,> 10 µM,> 30 µM
OCC(CO)N[C@H]1C[C@](O)(CO)[C@@H](O)[C@H](O)[C@H]1O [VOGLIBOSE],> 30 µM,> 30 µM,> 30 µM,> 30 µM,> 30 µM,> 30 µM,> 30 µM,> 30 µM,> 30 µM,> 30 µM,> 30 µM,–,> 30 µM,> 30 µM,> 30 µM
Cc1cccc(Nc2ccncc2S(=O)(=O)NC(=O)NC(C)C)c1 [TORSEMIDE],> 30 µM,–,–,> 10 µM,> 10 µM,> 30 µM,> 10 µM,> 10 µM,–,> 30 µM,> 10 µM,> 10 µM,> 10 µM,> 30 µM,> 30 µM
Cc1cnc(Nc2ccc(OCCN3CCCC3)cc2)nc1Nc1cccc(S(=O)(=O)NC(C)(C)C)c1 [FEDRATINIB],5.3 µM,3.9 µM,5.7 µM,> 30 µM,> 10 µM,14 µM,> 10 µM,> 10 µM,–,> 30 µM,> 10 µM,–,> 10 µM,9.16 µM,> 30 µM
Nc1nc(Cl)nc2c1ncn2[C@@H]1O[C@H](CO)[C@@H](O)[C@@H]1F [CLOFARABINE],> 30 µM,> 30 µM,> 30 µM,> 30 µM,> 10 µM,> 30 µM,> 30 µM,> 10 µM,–,> 30 µM,> 10 µM,> 30 µM,29 µM,> 30 µM,6.4 µM
OCC(O)COc1ccc(Cl)cc1 (stereo not drawn),> 30 µM,> 10 µM,> 30 µM,> 10 µM,> 10 µM,> 10 µM,> 10 µM,> 10 µM,–,> 10 µM,> 10 µM,> 10 µM,> 10 µM,> 10 µM,> 30 µM
CC1CC(OC(=O)C(O)c2ccccc2)CC(C)(C)C1 (stereo not drawn) [CYCLANDELATE],> 30 µM,> 10 µM,–,> 30 µM,> 10 µM,> 10 µM,> 10 µM,> 10 µM,–,> 10 µM,> 10 µM,> 10 µM,> 10 µM,> 10 µM,> 30 µM
CN1CCC(=C2c3ccccc3CC(=O)c3sccc32)CC1 [KETOTIFEN],3 µM,–,–,> 10 µM,> 10 µM,> 10 µM,> 10 µM,> 10 µM,> 30 µM,> 10 µM,> 10 µM,> 10 µM,10.4 µM,> 10 µM,> 30 µM
CCC1(CC)C(=O)NC(=O)N(C)C1=O [METHARBITAL],> 30 µM,> 10 µM,> 30 µM,> 10 µM,> 10 µM,> 10 µM,> 10 µM,> 10 µM,–,> 10 µM,> 10 µM,> 10 µM,> 10 µM,> 10 µM,> 30 µM
C[C@@H](Cc1ccccc1)N(C)Cc1ccccc1 [BENZPHETAMINE],> 30 µM,> 10 µM,> 30 µM,> 10 µM,> 10 µM,> 10 µM,> 10 µM,> 10 µM,> 30 µM,> 10 µM,> 10 µM,–,6.96 µM,> 10 µM,> 30 µM
COC(=O)[C@H]1[C@H]2C[C@@H]3c4[nH]c5ccccc5c4CCN3C[C@H]2C[C@@H](OC(=O)c2cc(OC)c(OC)c(OC)c2)[C@@H]1OC [DESERPIDINE],> 30 µM,–,> 30 µM,> 30 µM,> 10 µM,> 30 µM,> 10 µM,> 10 µM,–,8.6 µM,> 10 µM,> 10 µM,> 10 µM,24.6 µM,> 30 µM
CN(C)CCOC(=O)C(c1ccccc1)C1(O)CCCC1 (stereo not drawn) [CYCLOPENTOLATE],> 30 µM,–,0.04 µM,> 10 µM,> 10 µM,> 10 µM,> 10 µM,> 10 µM,–,> 10 µM,> 10 µM,> 10 µM,> 30 µM,> 10 µM,> 30 µM
CCN(C(C)=O)c1cccc(-c2ccnc3c(C#N)cnn23)c1 [ZALEPLON],> 30 µM,> 10 µM,–,> 30 µM,> 10 µM,> 30 µM,> 30 µM,–,> 30 µM,> 30 µM,–,> 10 µM,> 10 µM,> 30 µM,10 µM
CCOC(=O)O[C@]1(C(=O)COC(=O)CC)CC[C@H]2[C@@H]3CCC4=CC(=O)C=C[C@]4(C)[C@H]3[C@@H](O)C[C@@]21C [PREDNICARBATE],> 30 µM,–,> 30 µM,> 30 µM,> 10 µM,> 10 µM,> 10 µM,> 10 µM,–,> 10 µM,> 10 µM,> 10 µM,> 10 µM,> 10 µM,> 30 µM
CN(Cc1ccc(C(C)(C)C)cc1)Cc1cccc2ccccc12 [BUTENAFINE],> 30 µM,> 10 µM,–,> 30 µM,> 10 µM,> 10 µM,> 10 µM,> 10 µM,–,> 10 µM,> 10 µM,> 10 µM,> 10 µM,> 10 µM,> 30 µM
